This is an account of results in patent US11773078B2, “Furin inhibitors” (Glaxosmithkline Intellectual Property Development Limited, priority 2018, dated 2023).

Experiment [1] deals with T1, furin (endogenous protease) in U20S cells (Homo sapiens, UniProt P09958).
T1 construct: the endogenous protease cleaves GFP; endogenous in cells; host or cells: U2OS cells transduced with a BacMam reporter
As to the kind of experiment: Furin cell-based assay (image-based, Golgi-targeted GFP with BMP10 furin/PCSK cleavage site).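 Also: Read-out is mean GFP fluorescence of Golgi puncta per cell by high-content imaging, retained when furin inhibited, over an eleven-point 0.00017–10 µM series, four-parameter fit.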 Particulars: 24-hour incubation, read-out: furin golgi cell pXC50 (converted).

Experiment [2] concerns the target T2, Furin (108-574-Tev-Flag-His) enzyme (Homo sapiens, UniProt P09958).
T2 construct: Furin (108-574-Tev-Flag-His) enzyme was expressed and purified from CHO cells; TEV cleavage site (C); FLAG (C); His (C); made in house; host or cells: CHO cells
Kind of experiment: Furin enzyme assay. It counts as biochemical. The settings on record: for IC50: read-out: furin enzyme pIC50 (converted). As to the method:
Reactions were performed in black 384-well polystyrene low volume plates (Greiner). Furin (108-574-Tev-Flag-His) enzyme was expressed and purified from CHO cells. Compounds of the invention were dissolved in DMSO (1.0 mM) and serially diluted 1 to 3 with DMSO through eleven dilutions to provide a final compound concentration range from 0.00017 to 10 μM. 0.05 μL of each concentration was transferred to the corresponding well of an assay plate, and then 5 μL of 40 pM furin enzyme in assay buffer (100 mM HEPES pH7.5, 1 mM CaCl2 and 0.005% Triton X-100) was added using a Multidrop Combi (Thermo) to the compound plates, and mixed by inversion. […] The plates were centrifuged at 500×g for 1 minute and incubated at room temperature for two hours. Enzyme inhibition is then quantified using an Envision instrument (PerkinElmer).
Data were analyzed using AbaseXE 7.3, utilizing a four-parameter curve fit equation. The following values were used to define limits and/or constraints for each of the four parameters: • Minimum—limit −10 to 10 • Maximum—90 to 110 • Slope—limit 0.5 to 2.0 • pXC50 confidence interval—10
Raw counts obtained from the respective plate reader (Perkin Elmer) were captured for data analysis. Curves were generated using the equation: Y=A+[(B−A)/(1+(10^C/x)^D)] • where: A=minimum response • B=maximum response • C=log 10*XC50 • D=slope factor • x=log 10 compound concentration [M]
The results were recorded as pXC50 values (−C in the above equation)

Counter-ions that a name gives are not always drawn.

T2 sequence (P09958 108-574): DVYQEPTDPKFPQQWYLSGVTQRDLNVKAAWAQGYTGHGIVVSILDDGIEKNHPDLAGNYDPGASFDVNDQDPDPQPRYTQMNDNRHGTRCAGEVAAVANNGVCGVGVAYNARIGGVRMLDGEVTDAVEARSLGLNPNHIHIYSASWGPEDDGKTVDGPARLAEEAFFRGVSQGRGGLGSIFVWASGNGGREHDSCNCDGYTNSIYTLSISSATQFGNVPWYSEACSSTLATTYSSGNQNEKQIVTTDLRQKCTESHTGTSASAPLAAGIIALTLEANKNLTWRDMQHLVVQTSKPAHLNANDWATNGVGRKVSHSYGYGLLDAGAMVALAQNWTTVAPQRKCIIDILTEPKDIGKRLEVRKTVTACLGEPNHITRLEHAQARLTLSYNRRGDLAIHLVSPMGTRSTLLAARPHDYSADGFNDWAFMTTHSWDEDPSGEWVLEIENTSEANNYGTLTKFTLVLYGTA
T1 sequence (P09958 108-794): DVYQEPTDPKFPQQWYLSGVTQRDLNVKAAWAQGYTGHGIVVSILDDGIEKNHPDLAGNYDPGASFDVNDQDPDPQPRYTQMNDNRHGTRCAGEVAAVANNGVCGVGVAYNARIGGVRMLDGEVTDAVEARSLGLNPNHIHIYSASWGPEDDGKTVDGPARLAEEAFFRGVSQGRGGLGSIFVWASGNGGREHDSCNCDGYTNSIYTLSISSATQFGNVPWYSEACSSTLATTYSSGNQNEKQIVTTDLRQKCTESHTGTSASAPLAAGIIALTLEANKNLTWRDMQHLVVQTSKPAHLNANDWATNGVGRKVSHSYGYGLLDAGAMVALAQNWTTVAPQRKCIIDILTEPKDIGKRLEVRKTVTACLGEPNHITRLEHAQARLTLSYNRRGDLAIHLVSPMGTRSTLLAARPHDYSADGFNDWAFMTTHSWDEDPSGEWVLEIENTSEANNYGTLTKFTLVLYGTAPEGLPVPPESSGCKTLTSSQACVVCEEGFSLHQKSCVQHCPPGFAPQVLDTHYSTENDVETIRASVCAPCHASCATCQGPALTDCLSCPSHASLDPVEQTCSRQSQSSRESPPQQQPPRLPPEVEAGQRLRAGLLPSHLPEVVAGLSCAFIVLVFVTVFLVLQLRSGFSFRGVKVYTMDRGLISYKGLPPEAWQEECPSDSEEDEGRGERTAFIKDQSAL

As to `CC(=O)NCC1CCN(Cc2cc(Oc3ccc(N4CC[C@@H](N)[C@@H](F)C4)nc3)nc(-c3cc(Cl)cc(Cl)c3)c2)CC1` (relative stereo) [Example 182], the EC50 in experiment [1] was 0.00158 µM. The “furin enzyme pIC50” value in experiment [2] was determined as 9.3. For the molecule `CC(=O)NCC1CCN(Cc2cc(Oc3ccc(N4C[C@H](CN)[C@@H](O)C4)nc3)nc(-c3cc(Cl)cc(Cl)c3)c2)CC1` (relative stereo) [Example 184, N-((1-((2-((6-(trans-3-(Aminomethyl)-4-hydroxypyrrolidin-1-yl)pyridin-3-yl)oxy)-6-(3,5-dichlorophenyl)pyridin-4-yl)methyl)piperidin-4-yl)methyl)acetamide], the EC50 in experiment [1] was 0.0158 µM. The IC50 in experiment [2] is 0.000251 µM. Regarding `CNC(=O)CN1CCN(Cc2cc(Oc3ccc(N4CCNCC4)nc3)nc(-c3cc(Cl)cc(Cl)c3)c2)CC1` [Example 1, 2-(4-((2-(3,5-Dichlorophenyl)-6-((6-(piperazin-1-yl)pyridin-3-yl)oxy)pyridin-4-yl)methyl)piperazin-1-yl)-N-methylacetamide, 5 hydrochloride], the EC50 in experiment [1] is 0.00158 µM. In addition, the “furin enzyme pIC50” value in experiment [2] stood at 8.3.

Turning to `CC(=O)NCC1(O)CCN(Cc2cc(Oc3ccc(N4CCNCC4)nc3)nc(-c3cc(Cl)cc(Cl)c3)c2)CC1` [Example 2, N-((1-((2-(3,5-Dichlorophenyl)-6-((6-(piperazin-1-yl)pyridine-3-yl)oxy)pyridin-4-yl)methyl)-4-hydroxypiperidin-4-yl)methyl)acetamide], the EC50 in experiment [1] is 0.0398 µM. The “furin enzyme pIC50” value in experiment [2] is listed as 8.8. In the same order, the values of `O=C(O)CCC1CCN(Cc2cc(Oc3ccc(N4CCNCC4)nc3)nc(-c3cc(Cl)cc(Cl)c3)c2)CC1` [Example 3, 3-(1-((2-(3,5-Dichlorophenyl)-6-((6-(piperazin-1-yl)pyridin-3-yl)oxy)pyridin-4-yl)methyl)piperidin-4-yl)propanoic acid, 4 hydrochloride] are 0.0501 µM and 8.9.

As to `O=C(O)CC1CCN(Cc2cc(Oc3ccc(N4CCNCC4)nc3)nc(-c3cc(Cl)cc(Cl)c3)c2)CC1` [Example 4, 2-(1-((2-(3,5-Dichlorophenyl)-6-((6-(piperazin-1-yl)pyridin-3-yl)oxy)pyridin-4-yl)methyl)piperidin-4-yl)acetic acid, 4 hydrochloride], the EC50 in experiment [1] is 0.0316 µM. The “furin enzyme pIC50” value in experiment [2] was 8.7. Taken in the same sequence, the figures for `CNC(=O)NCC1(O)CCN(Cc2cc(Oc3ccc(N4CCNCC4)nc3)nc(-c3cc(Cl)cc(Cl)c3)c2)CC1` [Example 5, 1-((1-((2-(3,5-Dichlorophenyl)-6-((6-(piperazin-1-yl)pyridin-3-yl)oxy)pyridin-4-yl)methyl)-4-hydroxypiperidin-4-yl)methyl)-3-methylurea, 4 hydrochloride] were 0.0631 µM and 9.1.

In the case of `COC(=O)NCC1(O)CCN(Cc2cc(Oc3ccc(N4CCNCC4)nc3)nc(-c3cc(Cl)cc(Cl)c3)c2)CC1` [Example 6, Methyl ((1-((2-(3,5-dichlorophenyl)-6-((6-(piperazin-1-yl)pyridin-3-yl)oxy)pyridin-4-yl)methyl)-4-hydroxypiperidin-4-yl)methyl)carbamate, 4 hydrochloride], the EC50 in experiment [1] was 0.00794 µM. Further, the “furin enzyme pIC50” value in experiment [2] is 8.5. As to `O=S(=O)(O)CCC1CCN(Cc2cc(Oc3ccc(N4CCNCC4)nc3)nc(-c3cc(Cl)cc(Cl)c3)c2)CC1` [Example 7, 2-(1-((2-(3,5-Dichlorophenyl)-6-((6-(piperazin-1-yl)pyridin-3-yl)oxy)pyridin-4-yl)methyl)piperidin-4-yl)ethanesulfonic acid, 4 hydrochloride], the EC50 in experiment [1] was 0.0794 µM. Moreover, in experiment [2], the “furin enzyme pIC50” value is given as 9.2. Taken in the same sequence, the figures for `O=S(=O)(O)CC1CCN(Cc2cc(Oc3ccc(N4CCNCC4)nc3)nc(-c3cc(Cl)cc(Cl)c3)c2)CC1` [Example 8, (1-((2-(3,5-Dichlorophenyl)-6-((6-(piperazin-1-yl)pyridin-3-yl)oxy)pyridin-4-yl)methyl)piperidin-4-yl)methanesulfonic acid, 4 hydrochloride] were 0.2 µM and 8.9. For `CC(=O)NCC1CCN(Cc2cc(Oc3ccc(N4CCNCC4)nc3)nc(-c3cc(Cl)cc(Cl)c3)c2)CC1` [Example 9, N-((1-((2-(3,5-Dichlorophenyl)-6-((6-(piperazin-1-yl)pyridin-3-yl)oxy)pyridin-4-yl)methyl)piperidin-4-yl)methyl)acetamide, 4 hydrochloride], in experiment [1], the EC50 is 0.00794 µM. Further, the “furin enzyme pIC50” value in experiment [2] worked out at 9.2.

Take `CC(=O)NCC1CCN(Cc2cc(Oc3ccc(N4CCN(CCC(N)=O)CC4)nc3)nc(-c3cc(Cl)cc(Cl)c3)c2)CC1` [Example 13, hydrochloride]: the EC50 in experiment [1] was 0.00794 µM. Moreover, the “furin enzyme pIC50” value in experiment [2] was determined as 9.1.

Turning to `CC(=O)NCC1CCN(Cc2cc(Oc3ccc(N4CCN(CCc5nnn[nH]5)CC4)nc3)nc(-c3cc(Cl)cc(Cl)c3)c2)CC1` [Example 14, N-((1-((2-((6-(4-(2-(1H-Tetrazol-5-yl)ethyl)piperazin-1-yl)pyridin-3-yl)oxy)-6-(3,5-dichlorophenyl)pyridin-4-yl)methyl)piperidin-4-yl)methyl)acetamide, 4 hydrochloride], the EC50 in experiment [1] is 0.631 µM. Also, the “furin enzyme pIC50” value in experiment [2] worked out at 9.5. In the same order, the values of `CC(=O)NCC1CCN(Cc2cc(Oc3ccc(N4CCN(CC[S+](C)[O-])CC4)nc3)nc(-c3cc(Cl)cc(Cl)c3)c2)CC1` (stereo not shown) [Example 15, N-((1-((2-(3,5-Dichlorophenyl)-6-((6-(4-(2-(methylsulfinyl)ethyl)piperazin-1-yl)pyridin-3-yl)oxy)pyridin-4-yl)methyl)piperidin-4-yl)methyl)acetamide, 4 hydrochloride] are 0.0251 µM and 8.5. For `CC(=O)NCC1CCN(Cc2cc(Oc3ccc(N4CCN(C(C)CCS(C)(=O)=O)CC4)nc3)nc(-c3cc(Cl)cc(Cl)c3)c2)CC1` (stereo not shown) [Example 16], the EC50 in experiment [1] was 0.00126 µM. Also, the “furin enzyme pIC50” value in experiment [2] is recorded as 9. Regarding `CC(=O)NCC1CCN(Cc2cc(Oc3ncc(N)cn3)cc(-c3cc(Cl)cc(Cl)c3)c2)CC1` [Example 43, N-((1-((5-((5-aminopyrimidin-2-yl)oxy)-3′,5′-dichloro-[1,1′-biphenyl]-3-yl)methyl)piperidin-4-yl)methyl)acetamide], in experiment [2], the “furin enzyme pIC50” value was 6. On to `COC(=O)NC(=O)CCN1CCN(c2ncc(Oc3cc(CN4CCC(CNC(C)=O)CC4)cc(-c4cc(Cl)cc(Cl)c4)n3)cn2)CC1` [Example 172, methyl (3-(4-(5-((4-((4-(acetamidomethyl)piperidin-1-yl)methyl)-6-(3,5-dichlorophenyl)pyridin-2-yl)oxy)pyrimidin-2-yl)piperazin-1-yl)propanoyl)carbamate], for which the IC50 in experiment [2] was 0.000251 µM. `COC(=O)NC(=O)CCN1CCN(c2ncc(Oc3cc(CN4CCC(CNC(C)=O)CC4)cc(-c4cc(Cl)cc(Cl)c4)n3)cn2)CC1` [Example 175, methyl (3-(4-(5-((4-((4-(acetamidomethyl)piperidin-1-yl)methyl)-6-(3,5-dichlorophenyl)pyridin-2-yl)oxy)pyrimidin-2-yl)piperazin-1-yl)propanoyl)carbamate]: the “furin enzyme pIC50” value in experiment [2] was 9.2. For the molecule `CNC(=O)NCC1CCN(Cc2cc(Oc3ccc(N4CCN(CCCS(N)(=O)=O)CC4)nc3)nc(-c3cc(Cl)cc(Cl)c3)c2)CC1` [Example 260, 3-(4-(5-((6-(3,5-dichlorophenyl)-4-((4-((3-methylureido)methyl)piperidin-1-yl)methyl)pyridin-2-yl)oxy)pyridin-2-yl)piperazin-1-yl)propane-1-sulfonamide], in experiment [1], the EC50 was 0.00631 µM. Same read-out and setting: with `CN1CCN(c2ncc(Oc3cc(CN4CC[C@@H]5[C@H](CC4)[C@H]5C(=O)O)cc(-c4cc(Cl)cc(Cl)c4)n3)cn2)CC1` [Example 321, (1R,7S,8r)-4-((2-(3,5-dichlorophenyl)-6-((2-(4-methylpiperazin-1-yl)pyrimidin-5-yl)oxy)pyridin-4-yl)methyl)-4-azabicyclo[5.1.0]octane-8-carboxylic acid] the figure was 0.0158 µM; with `C[C@H](CC1CCN(Cc2cc(Oc3ccc(N4CCN(C)CC4)nn3)nc(-c3cc(Cl)cc(Cl)c3)c2)CC1)C(=O)O` [Example 364, (R)-3-(1-((2-(3,5-dichlorophenyl)-6-((6-(4-methylpiperazin-1-yl)pyridazin-3-yl)oxy)pyridin-4-yl)methyl)piperidin-4-yl)-2-methylpropanoic acid], 0.0316 µM. For the molecule `CN1CCN(c2cnc(Oc3nc(-c4cc(Cl)cc(Cl)c4)cc(CN4CCC(CC(=O)O)CC4)c3F)cn2)CC1` [Example 390, 2-(1-((6-(3,5-Dichlorophenyl)-3-fluoro-2-((5-(4-methylpiperazin-1-yl)pyrazin-2-yl)oxy)pyridin-4-yl)methyl)piperidin-4-yl)acetic acid], the “furin enzyme pIC50” value in experiment [2] was 8.3.
